This note sets out measurements from ChEMBL document CHEMBL4765407, “Design, synthesis and high antitumor potential of new unsymmetrical bisacridine derivatives towards human solid tumors, specifically pancreatic cancers and their unique ability to stabilize DNA G-quadruplexes” (Eur J Med Chem, 2020).

The test system of one data set is HCT-116. Put plainly: Cytotoxicity against human HCT-116 cells assessed as reduction in cell viability measured after 72 hrs by SRB assay. In kind it is functional, cell-based. The conditions noted are these: HCT-116, 72 h. Background: Sulforhodamine B stains cellular protein and so reports cell mass.
Data set [1] has as its system BXPC-3. Put plainly: Antitumour activity against human BXPC-3 cells xenografted in Crl:Nu-Foxnl nu mouse assessed as inhibition of tumour growth at total effective dose of 160 mg/kg, iv measured on day 29. It is filed as functional. The conditions noted are these: BXPC-3, iv, 696 h, time 29 day, read-out: TGI. (In general: In xenograft studies the graft and the host belong to different species.)

In data set [2] the test system is PANC-1. Nature of the data set: Cytotoxicity against human PANC-1 cells assessed as reduction in cell viability measured after 72 hrs by SRB assay. In kind it is functional, cell-based. The conditions noted are these: PANC-1, 72 h.
The test system of data set [3] is DU-145. Nature of the data set: Cytotoxicity against human DU-145 cells assessed as reduction in cell viability measured after 72 hrs by SRB assay. It is filed as functional, cell-based. The conditions noted are these: DU-145, 72 h.
A short description of data set [4]: Toxicity in BALB/c mouse assessed as effect on body weight at total dose of 120 mg/kg, iv administered as 3 times per week for 2 weeks measured for 65 days. In kind it is organism-based. To be noted: in vivo, 1560 h, time 65 day.
Data set [5] relates to Quadruplex DNA. Nature of the data set: Stabilization of 5'-FAM/3'-TAMRA labeled K-Ras G4 quadruplex DNA (unknown origin) assessed as change in melting temperature at 10 microM measured after 15 mins by FRET assay. It is filed as nucleic-acid assay.
The subject of data set [6] is MIA PaCa-2. Put plainly: Cytotoxicity against human MIA PaCa-2 cells assessed as reduction in cell viability measured after 72 hrs by SRB assay. It is filed as functional, cell-based. To be noted: MIA PaCa-2, 72 h.
The subject of data set [7] is PANC-1. Nature of the data set: Antitumour activity against human PANC-1 cells xenografted in Crl:Nu-Foxnl nu mouse assessed as inhibition of tumour growth at total effective dose of 160 mg/kg, iv measured on day 40. In kind it is functional. To be noted: PANC-1, iv, 960 h, time 40 day, read-out: TGI.
Data set [8] can be described thus: Toxicity in BALB/c mouse assessed as macroscopic anatomopathological changes at total dose of 120 mg/kg, iv administered as 3 times per week for 2 weeks measured for 65 days. It is filed as organism-based. The conditions noted are these: in vivo, 1560 h, time 65 day.
Data set [9] deals with Quadruplex DNA. Put plainly: Stabilization of 5'-FAM/3'-TAMRA labeled c-Myc promoter G4 quadruplex DNA FPu18 (unknown origin) assessed as change in melting temperature at 10 microM measured after 15 mins by FRET assay. It is filed as nucleic-acid assay.
For data set [10], the system named is ASPC1. Put plainly: Cytotoxicity against human ASPC1 cells assessed as reduction in cell viability measured after 72 hrs by SRB assay. The conditions noted are these: ASPC1, 72 h. It is filed as functional, cell-based.
Data set [11] in a line: Stabilization of ds 5'-FAM-d(TATAGCTATA-HEG-TATAGCTATA)-TAMRA-3' (unknown origin) assessed as change in melting temperature at 10 microM measured after 15 mins by FRET assay. The conditions noted are these: Homo sapiens.
Data set [12] relates to Quadruplex DNA. Put plainly: Stabilization of 5'-FAM/3'-TAMRA labeled telomeric G4 quadruplex DNA F21T (unknown origin) assessed as change in melting temperature at 10 microM measured after 15 mins by FRET assay. In kind it is nucleic-acid assay.
The subject of data set [13] is BXPC-3. Put plainly: Cytotoxicity against human BXPC-3 cells assessed as reduction in cell viability measured after 72 hrs by SRB assay. It is filed as functional, cell-based. The conditions noted are these: BXPC-3, 72 h.
Data set [14] concerns MDA-MB-231. Put plainly: Cytotoxicity against human MDA-MB-231 cells assessed as reduction in cell viability measured after 72 hrs by SRB assay. It is filed as functional, cell-based. To be noted: MDA-MB-231, 72 h.
Data set [15] in a line: Toxicity in BALB/c mouse assessed as effect on body weight at total dose of 6 mg/kg, iv administered as 3 times per week for 2 weeks measured for 71 days. The conditions noted are these: in vivo, 1704 h, time 71 day. In kind it is organism-based.
In data set [16] the test system is MIA PaCa-2. Put plainly: Antitumour activity against human MIA PaCa-2 cells xenografted in Crl:Nu-Foxnl nu mouse assessed as inhibition of tumour growth at total effective dose of 12 mg/kg, ip measured on day 15. It is filed as functional. The conditions noted are these: MIA PaCa-2, ip, 360 h, time 15 day, read-out: TGI.
Data set [17] relates to BXPC-3. Put plainly: Antitumour activity against human BXPC-3 cells xenografted in Crl:Nu-Foxnl nu mouse assessed as inhibition of tumour growth at total effective dose of 16 mg/kg, iv measured on day 44. In kind it is functional. To be noted: BXPC-3, iv, 1056 h, time 44 day, read-out: TGI.
For data set [18], the system named is MDA-MB-231. Put plainly: Antitumour activity against human MDA-MB-231 cells xenografted in Crl:Nu-Foxnl nu mouse assessed as inhibition of tumour growth at total effective dose of 32 mg/kg, iv measured on day 32. It is filed as functional. To be noted: MDA-MB-231, iv, 768 h, time 32 day, read-out: TGI.
The subject of data set [19] is DU-145. Nature of the data set: Antitumour activity against human DU-145 cells xenografted in Crl:Nu-Foxnl nu mouse assessed as inhibition of tumour growth at total effective dose of 16 mg/kg, iv measured on day 33. It is filed as functional. To be noted: DU-145, iv, 792 h, time 33 day, read-out: TGI.
The test system of another data set is MCF7. Put plainly: Cytotoxicity against human MCF7 cells assessed as reduction in cell viability measured after 72 hrs by SRB assay. In kind it is functional, cell-based. To be noted: MCF7, 72 h.
A short description of data set [20]: Toxicity in BALB/c mouse assessed as macroscopic anatomopathological changes at total dose of 6 mg/kg, iv administered as 3 times per week for 2 weeks measured for 71 days. In kind it is organism-based. The conditions noted are these: in vivo, 1704 h, time 71 day.
Data set [21] has as its system ASPC1. Put plainly: Antitumour activity against human ASPC1 cells xenografted in Crl:Nu-Foxnl nu mouse assessed as inhibition of tumour growth at total effective dose of 16 mg/kg, iv measured on day 39. In kind it is functional. The conditions noted are these: 936 h, time 39 day, read-out: TGI.
The subject of the next data set is Capan-2. Nature of the data set: Cytotoxicity against human Capan-2 cells assessed as reduction in cell viability measured after 72 hrs by SRB assay. To be noted: Capan-2, 72 h. In kind it is functional, cell-based.
The subject of another data set is NCI-H460. Nature of the data set: Cytotoxicity against human NCI-H460 cells assessed as reduction in cell viability measured after 72 hrs by SRB assay. In kind it is functional, cell-based. The conditions noted are these: NCI-H460, 72 h.
Data set [22] has as its system BXPC-3. Nature of the data set: Antitumour activity against human BXPC-3 cells xenografted in Crl:Nu-Foxnl nu mouse assessed as inhibition of tumour growth at total effective dose of 16 mg/kg, iv measured on day 32. In kind it is functional. To be noted: BXPC-3, iv, 768 h, time 32 day, read-out: TGI.
For data set [23], the system named is PANC-1. Put plainly: Antitumour activity against human PANC-1 cells xenografted in Crl:Nu-Foxnl nu mouse assessed as inhibition of tumour growth at total effective dose of 16 mg/kg, iv measured on day 33. To be noted: PANC-1, iv, 792 h, time 33 day, read-out: TGI. In kind it is functional.

On to `Cc1cc(C(N)CCN2CCN(CCCNc3ccc4ncn5c6ccccc6c(=O)c3c45)CC2)c([N+](=O)[O-])c2cc3ccccc3nc12` (configuration not stated), for which the IC50 (commonly the concentration that gives 50% inhibition) in the data set on HCT-116 was determined as 45 nM; in the data set with PANC-1 [2] it was 65 nM; with DU-145 [3], 62 nM; in the data set on MIA PaCa-2 [6], 58 nM; in the data set with ASPC1 [10], 240 nM; in the data set with BXPC-3 [13], 351 nM. The inhibition in vivo at 160 mg/kg was 40% in the data set with BXPC-3 [1] and 64% with PANC-1 [7]. Also, the Activity entry in [4] and in data set [8] was “Non-Toxic” throughout. Also, the ΔTm (usually the change in melting temperature against a reference sample) in the data set with Quadruplex DNA [5] is 19.9 °C; in the data set with Quadruplex DNA [9], 27 °C; in data set [11], 3.6 °C; with Quadruplex DNA [12], 19.2 °C.
On to `O=c1c2ccccc2n2cnc3ccc(NCCCN4CCN(CCCNc5c6ccccc6nc6cccc([N+](=O)[O-])c56)CC4)c1c32`, for which the IC50 in the data set on HCT-116 was 25 nM; in the data set on PANC-1 [2] it was 24 nM; in the data set on MDA-MB-231 [14], 21 nM; in the data set with DU-145 [3], 22 nM; in the data set with MIA PaCa-2 [6], 39 nM; with ASPC1 [10], 69 nM. Besides, the IC50 came to 82 nM in the data set on MCF7, 54 nM with BXPC-3 [13], 32 nM in the data set on Capan-2 and 15 nM with NCI-H460. In addition, the Activity entry in data set [15] and in data set [20] was “Non-Toxic” each time. Also, the ΔTm with Quadruplex DNA [5] turned out to be 27.6 °C; in the data set on Quadruplex DNA [9], 23.3 °C; in data set [11], 5.4 °C; in the data set with Quadruplex DNA [12], 30 °C. In the data set on MIA PaCa-2 [16], the inhibition in vivo at 12 mg/kg was found to be 38%. Moreover, the inhibition in vivo at 16 mg/kg came to 81% with BXPC-3 [17]; 61% with DU-145 [19]; 29% in the data set on ASPC1 [21]; 48% with BXPC-3 [22]; 80% with PANC-1 [23]. Also, in the data set on MDA-MB-231 [18], the inhibition in vivo at 32 mg/kg was 53%.
